{
  "source": "patent US10265331B2",
  "about": "“Prevention or treatment agent for hepatic fibrosis” (priority 2012, dated 2019)",
  "key": {"[1]": {"tested_on": "chronic hepatitis C model mouse (Cre/loxP/HCV-MxCre Tg mouse)", "experiment": "Treatment effect on hepatic fibrosis by histological staining of liver of model mouse", "assay_type": "in vivo", "procedure": "The expression of Cre in the liver of these mice was induced by intraperitoneal injection of polyinosinic-polycytidylic acid [Poly(I:C)] (purchased from GE Healthcare UK Ltd. (Buckinghamshire, England)). That is, 300 μL of poly(I:C) solution (1 mg/mL phosphate buffered saline [PBS]) was intraperitoneally injected, after lapse of 2 months from birth, […] 3 times at 48 hr intervals. HCV gene expression can be induced in almost all hepatocytes by performing this poly(I:C) administration operation once.\nA CBP/β-catenin inhibitor was intraperitoneally administered to the CN2-29^(+/−)/MxCre^(+/−) mouse obtained in Example 1, and whether the CBP/β-catenin inhibitor has a treatment effect on hepatic fibrosis was examined by histological staining of the hepatic tissues collected from the model mouse.\nA CBP/β-catenin inhibitor was dissolved in commercially available PBS (pH 7.6), and the pH was adjusted again to 7.6 with an aqueous sodium hydroxide solution to give a 40 mg/ml CBP/β-catenin inhibitor solution. This solution (250 μl) was filled in an osmotic pressure pump (ALZET mini-osmotic pump model 2006) and embedded subcutaneously in the back of mouse, whereby a CBP/β-catenin inhibitor was administered at 0.15 μl/hr for 42 days in a sustained manner. For the control group, commercially available PBS (pH7.6) was similarly filled in an osmotic pressure pump and administered as a vehicle by embedding same subcutaneously in the back of mouse.\nAutopsy was performed on day 42 from the administration of the CBP/β-catenin inhibitory compound of (1), the liver was removed and histologically searched.\nAs for staining, the whole image of the tissue was stained and observed by hematoxylin-eosin staining (HE staining), and fiber was stained and observed by silver staining and Azan staining.\nA tissue sample was fixed with 4% para-formaldehyde in PBS, embedded in paraffin and sliced (thickness 4 μm). The obtained section was subjected to hematoxylin-eosin staining (HE), silver staining and Azan staining.\nHematoxylin-eosin staining was performed according to the method described in a handbook of histopathological staining (Kiyoyuki Takahashi, Igaku-Shoin).\nSilver staining was performed according to the method described in a handbook of histopathological staining (Kiyoyuki Takahashi, Igaku-Shoin).\nAzan staining was performed according to the method described in a handbook of histopathological staining (Kiyoyuki Takahashi, Igaku-Shoin)."}, "[2]": {"target": "CBP/β-catenin (Homo sapiens, UniProt Q92793)", "sequence (Q92793 whole entry)": "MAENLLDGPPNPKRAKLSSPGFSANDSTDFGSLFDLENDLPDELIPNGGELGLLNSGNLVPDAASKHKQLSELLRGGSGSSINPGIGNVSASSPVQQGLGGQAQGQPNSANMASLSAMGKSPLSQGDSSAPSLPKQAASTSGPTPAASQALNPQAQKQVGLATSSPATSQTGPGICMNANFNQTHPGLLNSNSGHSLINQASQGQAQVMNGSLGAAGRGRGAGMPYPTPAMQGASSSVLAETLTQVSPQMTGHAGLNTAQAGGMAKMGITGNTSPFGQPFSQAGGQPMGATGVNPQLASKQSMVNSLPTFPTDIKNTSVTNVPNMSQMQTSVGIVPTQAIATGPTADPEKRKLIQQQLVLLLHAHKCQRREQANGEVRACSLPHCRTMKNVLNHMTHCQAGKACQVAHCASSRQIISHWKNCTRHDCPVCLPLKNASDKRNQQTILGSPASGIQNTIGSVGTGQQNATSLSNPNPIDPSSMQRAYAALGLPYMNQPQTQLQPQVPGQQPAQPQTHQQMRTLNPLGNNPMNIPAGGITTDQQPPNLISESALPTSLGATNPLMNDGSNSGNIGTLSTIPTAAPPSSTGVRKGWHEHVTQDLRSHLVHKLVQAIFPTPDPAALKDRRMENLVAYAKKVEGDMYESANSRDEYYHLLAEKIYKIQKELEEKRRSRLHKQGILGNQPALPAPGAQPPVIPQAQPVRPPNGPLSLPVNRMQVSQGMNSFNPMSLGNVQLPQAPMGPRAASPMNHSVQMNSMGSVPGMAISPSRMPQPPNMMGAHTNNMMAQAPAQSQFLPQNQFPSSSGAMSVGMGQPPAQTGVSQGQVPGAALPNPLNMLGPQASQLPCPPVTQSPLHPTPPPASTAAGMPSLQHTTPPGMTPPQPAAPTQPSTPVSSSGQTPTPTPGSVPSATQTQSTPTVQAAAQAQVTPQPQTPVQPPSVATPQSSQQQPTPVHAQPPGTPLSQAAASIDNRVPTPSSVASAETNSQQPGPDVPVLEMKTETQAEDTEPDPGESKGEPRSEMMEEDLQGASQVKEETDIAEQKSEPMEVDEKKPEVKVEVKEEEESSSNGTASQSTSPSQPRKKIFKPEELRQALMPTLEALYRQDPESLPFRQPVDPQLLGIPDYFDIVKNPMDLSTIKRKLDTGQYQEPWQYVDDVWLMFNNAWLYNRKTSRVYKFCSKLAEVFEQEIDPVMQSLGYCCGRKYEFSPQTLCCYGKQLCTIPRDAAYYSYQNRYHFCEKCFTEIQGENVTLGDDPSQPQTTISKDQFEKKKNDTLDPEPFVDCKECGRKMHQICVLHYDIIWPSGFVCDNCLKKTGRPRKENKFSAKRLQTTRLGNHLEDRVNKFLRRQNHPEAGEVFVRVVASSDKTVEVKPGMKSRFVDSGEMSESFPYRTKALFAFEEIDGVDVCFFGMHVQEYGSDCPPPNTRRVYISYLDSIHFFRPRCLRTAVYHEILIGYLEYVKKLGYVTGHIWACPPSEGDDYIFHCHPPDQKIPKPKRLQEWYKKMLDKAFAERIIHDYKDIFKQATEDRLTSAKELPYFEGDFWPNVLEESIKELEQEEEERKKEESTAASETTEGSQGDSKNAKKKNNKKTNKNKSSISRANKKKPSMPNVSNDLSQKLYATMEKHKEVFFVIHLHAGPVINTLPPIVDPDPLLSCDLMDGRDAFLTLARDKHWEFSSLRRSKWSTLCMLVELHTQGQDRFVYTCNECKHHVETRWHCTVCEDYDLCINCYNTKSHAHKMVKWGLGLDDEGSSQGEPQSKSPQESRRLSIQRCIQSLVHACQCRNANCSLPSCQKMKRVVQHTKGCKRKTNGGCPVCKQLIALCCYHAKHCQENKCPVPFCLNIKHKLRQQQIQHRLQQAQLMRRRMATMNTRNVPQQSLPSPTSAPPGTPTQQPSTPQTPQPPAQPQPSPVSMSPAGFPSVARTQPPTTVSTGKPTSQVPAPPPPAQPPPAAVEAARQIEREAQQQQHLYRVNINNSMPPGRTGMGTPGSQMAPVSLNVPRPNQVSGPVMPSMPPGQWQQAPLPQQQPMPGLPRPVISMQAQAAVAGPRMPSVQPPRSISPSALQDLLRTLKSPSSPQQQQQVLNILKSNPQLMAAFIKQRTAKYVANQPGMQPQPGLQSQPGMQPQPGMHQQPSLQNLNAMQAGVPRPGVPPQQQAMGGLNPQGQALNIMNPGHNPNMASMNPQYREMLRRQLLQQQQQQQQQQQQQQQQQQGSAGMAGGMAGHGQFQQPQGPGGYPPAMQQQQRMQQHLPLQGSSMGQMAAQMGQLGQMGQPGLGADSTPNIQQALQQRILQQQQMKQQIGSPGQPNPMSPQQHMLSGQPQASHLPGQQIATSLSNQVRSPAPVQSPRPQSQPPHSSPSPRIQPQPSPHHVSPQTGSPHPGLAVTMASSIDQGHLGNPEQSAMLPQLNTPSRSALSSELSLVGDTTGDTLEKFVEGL", "conditions": "reporter assay of WO 2009/148192; cited from earlier work"}},
  "data": [
    {"smiles": "C[C@H]1C2N(C(=O)CN(C)N2C(=O)NCc2ccccc2)[C@@H](Cc2ccc(OP(=O)(O)O)cc2)C(=O)N1Cc1cccc2cccnc12", "note": "(stereo partly drawn) [CBP/β-catenin inhibitory compound, 4-(((6S,9S)-1-(benzylcarbamoyl)-2,9-dimethyl-4,7-dioxo-8-(quinolin-8-ylmethyl)octahydro-1H-pyrazino[2,1-c][1,2,4]triazin-6-yl)methyl)phenyl dihydrogen phosphate]", "values": [
      {"measurement": "hepatic lobule structure (defibrosing action)", "setting": "[1]; CN2-29(+/-)/MxCre(+/-) mouse, 40 mg/ml solution by subcutaneous osmotic pump, 0.15 μl/hr for 42 days, HE, silver and Azan staining (FIG. 2-4)", "result": "improved hepatic lobule structure"},
      {"measurement": "hepatocyte cord structure of liver tissue, hematoxylin-eosin staining", "setting": "[1]; administration for 42 days, FIG. 2", "result": "normalized to take a cord-like form"},
      {"measurement": "staining of reticular fiber, silver staining", "setting": "[1]; administration for 42 days, FIG. 3", "result": "weakened and normalized"},
      {"measurement": "staining of collagenous fibers, Azan staining", "setting": "[1]; administration for 42 days, FIG. 4", "result": "normalized"},
      {"measurement": "CBP/β-catenin inhibitory action", "setting": "[2]", "result": "confirmed"}
    ]}
  ]
}
